Assay results reported in ChEMBL document CHEMBL4610081, “Anti-inflammatory Metabolites from Chaetomium nigricolor” (J Nat Prod, 2020).

Test system: RAW264.7
Assay: Antiinflammatory activity against mouse RAW264.7 cells assessed as inhibition of LPS-induced NO production preincubated for 3 hrs followed by LPS-stimulation and measured after 24 hrs by Griess reagent based assay
Assay type: functional, cell-based

In the case of `COc1cc(OC)c2c(O)c3c(=O)cc(C)oc3c(-c3c(OC)cc4cc(O)c5c(=O)cc(C)oc5c4c3OC)c2c1` (atropisomer aS) [FONSECINONE A], the Activity is reported as “Dose-dependent effect” and the IC50 is reported as 7 µM.
